Earlier results as cited in US20240342250A1, “COMPOSITION AND METHODS OF TREATMENT USING […]-ENHANCED SUPPLEMENTATION” (Xygenyx Inc., priority 2023, published 2024).
Non-standard residues stand in square brackets, D forms with d. Residues, ends and D or L forms follow the SMILES beside them. Cit = NC(=O)NCCC[C@H](N)C(=O)O

How the values were obtained:
symptoms of depression = conditions: patients who did not respond to traditional antidepressant medications
[1] = test system: memory recall and cognitive function; conditions: compared to placebo; 34 pairs of matched adolescent students
skin [2] = test system: skin
[3] = test system: wide dynamic range neurons in the ventroposterolateral nucleus of the thalamus; conditions: is believed
[4] = generally considered safe and well-tolerated at doses of up to
skin [5] = conditions: topical formulations; within four weeks of treatment
skin [6] = conditions: topical, concentrations 0.5-5%
[7] = test system: systemic inflammation, oxidative status, and liver cell metabolism associated with rheumatoid arthritis; conditions: arthritic subjects
[8] = compared to alpha-tocopherol = 1.0
[9] = even when dietary intake occurs in equal portions
[10] = test system: markers of inflammation in the blood; conditions: individuals with metabolic syndrome
[11] = in vivo

Molecule: CN1c2c([nH]c(N)nc2=O)NCC1CNc1ccc(C(=O)N[C@@H](CCC(=O)O)C(=O)O)cc1 (stereo partly shown) [5-MTHF, 5-methyltetrahydrofolate]
- symptoms of depression (symptoms of depression): improved symptoms of depression

Molecule: C/C=C1\[C@H]2C=C(C)C[C@]1(N)c1ccc(=O)[nH]c1C2 [Huperzine A]
- memory recall and cognitive function [1]: significant improvements in memory recall and cognitive function

Molecule: CC(C)[C@@H]1CC[C@@H](C)C[C@H]1O [Menthol]
- increase of transdermal drug uptake, factor (skin [2]): ≥ 10

Molecule: CCCCCc1cc(O)c2c(c1)OC(C)(C)C1CCC(C)=CC21 (stereo not shown) [THC, Δ-9-tetrahydrocannabinol]
- potency in mediating pain relative to morphine [3]: ten times more powerful than morphine

Molecule: CCNC(=O)CC[C@H](N)C(=O)O [Theanine]
- safe and well-tolerated dose [4]: up to 400 mg per day

Molecule: CC[C@H](C)[C@H](NC(=O)[C@H](CC(=O)O)NC(=O)[C@@H](N)CCCCN)C(=O)N[C@@H](CCCNC(N)=O)C(N)=O [Tripeptide-10 citrulline] (H-KDI[Cit]-NH2)
- improvement of suppleness (skin [5]): ≤ 54%

Molecule: C=CCCCCCCCCC(=O)N[C@@H](Cc1ccccc1)C(=O)O [UP, Undecylenoyl phenylalanine]
- time to skin lightening effects (skin [6]): ≥ 7 days

Molecule: CC12CCC(CC1)C(C)(C)O2 [eucalyptol, Eucalyptol]
- increase of transdermal drug uptake, factor (skin [2]): more than 10

Molecule: Cc1c(C)c2c(c(C)c1O)CC[C@@](C)(CCC[C@H](C)CCC[C@H](C)CCCC(C)C)O2 [α-tocopherol]
- progression of age-related macular degeneration (400-500 IU in combination with 10-20 mg beta-carotene and 400-500 mg vitamin C): dramatically reduce the progression of age-related macular degeneration
- functional health of sperm (800-900 IU/day): improve functional health of sperm
- blood plasma concentration of F2-isoprostane (1600-3200 IU/day): significantly lower blood plasma concentration of F2-isoprostane
- reduction of risk of coronary disease (dietary supplementation, doses up to 400 IU/day): up to 34%
- reduction of risk of developing neurodegenerative diseases such as Alzheimer's Syndrome or dementia (dietary supplementation, doses up to 400 IU/day, controlled trials): ≤ 24%
- reduction in the development of age-related cataracts (in combination with 10-20 mg beta-carotene and 400-500 mg vitamin C): 23%

Molecule: C=C1CC/C=C(\C)CC[C@@H]2[C@@H]1CC2(C)C [β-caryophyllene]
- protein carbonyl groups and myeloperoxidase activity in liver and plasma [7]: eliminated increases of protein carbonyl groups and myeloperoxidase activity
- swelling of joints and lymph nodes, circulating and articular leukocytes [7]: reduced swelling of joints and lymph nodes as well as the number of circulating and articular leukocytes

Molecule: Cc1cc(O)c(C)c2c1O[C@](C)(CCC[C@H](C)CCC[C@H](C)CCCC(C)C)CC2 [β-tocopherol]
- relative biological activity [8]: 0.5

Molecule: Cc1c(O)cc2c(c1C)O[C@](C)(CCC[C@H](C)CCC[C@H](C)CCCC(C)C)CC2 [γ-tocopherol]
- relative biological activity [8]: 0.1
- concentration in vivo relative to alpha-tocopherol [9]: roughly 10%

Molecule: Cc1cc(O)cc2c1O[C@](C)(CCC[C@H](C)CCC[C@H](C)CCCC(C)C)CC2 [δ-tocopherol]
- relative biological activity [8]: 0.03
- markers of inflammation in the blood [10]: reduced markers of inflammation in the blood

Molecule: HGH: hormone comprising a peptide chain that is synthesized in the pituitary gland
- biological half-life [11]: 10-20 minutes
